Values after ≈ are worked out from the molar mass of the structure shown. Structures can show the parent of a compound that is named as a salt.
Assays:
[1] = test system: S. aureus 133; experiment: Systemic infection with S. aureus 133 (mouse sepsis model); format: in vivo; conditions: female CFW1 mice, i.p. infection, i.v. therapy 30 minutes after infection, survival recorded for 6 days
Description: Systemic Infection with S. aureus 133
For this purpose, S. aureus 133 cells are cultured overnight in BH broth (Oxoid, Germany). The overnight culture was diluted 1:100 in fresh BH broth and expanded for 3 hours. The bacteria which are in the logarithmic phase of growth are centrifuged and washed twice with buffered physiological saline solution. A cell suspension in saline solution with an extinction of 50 units is then adjusted in a photometer (Dr Lange LP 2W). After a dilution step (1:15), this suspension is mixed 1:1 with a 10% strength mucine suspension. 0.2 ml of this infection solution is administered i.p. per 20 g of mouse. This corresponds to a cell count of about 1-2×10 microbes/mouse. The i.v. therapy takes place 30 minutes after the infection. Female CFW1 mice are used for the infection test. The survival of the animals is recorded for 6 days. The animal model is adjusted so that untreated animals die within 24 h after the infection.

[2] = test system: S. aureus T17; experiment: MIC, liquid dilution test in minimal medium (96-well microtitre plate); format: cell-based
Description: (§1) Determination of the Minimum Inhibitory Concentration (MIC)
(§2) The minimum inhibitory concentration (MIC) is the minimum concentration of an antibiotic with which the growth of a test microbe is inhibited over 18-24 h. The inhibitor concentration can in these cases be determined by standard microbiological methods (see, for example, The National Committee for Clinical Laboratory Standards. Methods for dilution antimicrobial susceptibility tests for bacteria that grow aerobically; approved standard-fifth edition. NCCLS document M7-A5 [ISBN 1-56238-394-9]. NCCLS, 940 West Valley Road, Suite 1400, Wayne, Pa. 19087-1898 USA, 2000). The MIC of the compounds of the invention is determined in the liquid dilution test on the 96-well microtitre plate scale. The bacterial microbes are cultivated in a minimal medium (18.5 mM Na2HPO4, 5.7 mM KH2PO4, 9.3 mM NH4Cl, 2.8 mM MgSO4, 17.1 mM NaCl, 0.033 μg/ml thiamine hydrochloride, 1.2 μg/ml nicotinic acid, 0.003 μg/ml biotin, 1% glucose, 25 μg/ml of each proteinogenic amino acid with the exception of phenylalanine; [H.-P. Kroll; unpublished]) with addition of 0.4% BH broth (test medium). In the case of Enterococcus faecium L4001, heat-inactivated fetal calf serum (FCS; GibcoBRL, Germany) is added to the test medium in a final concentration of 10%. Overnight cultures of the test microbes are diluted to an OD578 of 0.001 (to 0.01 in the case of enterococci) in fresh test medium, and incubated 1:1 with dilutions of the test substances (1:2 dilution steps) in test medium (200 μl final volume). The cultures are incubated at 37° C. for 18-24 hours; enterococci in the presence of 5% CO2.
(§3) The lowest substance concentration in each case at which bacterial growth was no longer visible is defined as the MIC. […] The compounds show a graded antibacterial effect against most of the test microbes.
The S. aureus strain T17 is isolated in vivo. CFW1 mice are infected intraperitoneally with 4×10^7 S. aureus 133 cells per mouse. 0.5 h after the infection, the animals are treated intravenously with 50 mg/kg biphenomycin B. The kidneys are removed from the surviving animals on day 3 after the infection. After homogenization of the organs, the homogenates are plated out as described for RN4220Bi^R on antibiotic-free and antibiotic-containing agar plates and incubated at 37° C. overnight. […] About 20 of these colonies are tested for the biphenomycin B MIC, and a colony with an MIC of >50 μM is selected for further cultivation, and the strain is referred to a T17.

[3] = test system: S. aureus E33; experiment: as above; format: cell-based; conditions: Staphylococcus aureus, E33, read-out: MIC S. aureus E33
Description: as §1, §2, §3

[4] = test system: E. faecium L4001; experiment: as above; format: cell-based; conditions: Enterococcus faecium, L4001, read-out: MIC E. faecium L4001
Description: as §1, §2, §3

[5] = target: S. aureus 133 Translation; experiment: S. aureus in vitro transcription-translation assay (S30 extract, firefly luciferase reporter); format: biochemical
Description: In vitro Transcription-Translation with S. aureus Extracts
Construction of an S. aureus Luciferase Reporter Plasmid
A reporter plasmid which can be used in an in vitro transcription-translation assay from S. aureus is constructed by using the plasmid pBESTluc (Promega Corporation, USA). The E. coli tac promoter present in this plasmid in front of the firefly luciferase is replaced by the capA1 promoter with appropriate Shine-Dalgarno sequence from S. aureus. The primers CAPFor 5′-CGGCCAAGCTTACTCGGAT-[…] […]-3′ and CAPRev 5′-[…]-3′ are used for this. The primer CAPFor contains the capA1 promoter, the ribosome binding site and the 5′ region of the luciferase gene. After PCR using pBESTluc as template it is possible to isolate a PCR product which contains the firefly luciferase gene with the fused capA1 promoter. This is, after restriction with ClaI and HindIII, ligated into the vector pBESTluc which has likewise been digested with ClaI and HindIII. The resulting plasmid pla is able to replicate in E. coli and be used as template in the S. aureus in vitro transcription-traslation assay.
Preparation of S30 Extracts from S. aureus
Six litres of BHI medium are inoculated with a 250 ml overnight culture of an S. aureus strain and allowed to grow at 37° C. until the OD600 run is 2-4. The cells are harvested by centrifugation and washed in 500 ml of cold buffer A (10 mM Tris acetate, pH 8.0, 14 mM Magnesium acetate, 1 mM DTT, 1 M KCl). After renewed centrifugation, the cells are washed in 250 ml of cold buffer A with 50 mM KCl, and the resulting pellets are frozen at −20° C. for 60 min. The pellets are thawed on ice in 30 to 60 min and taken up to a total volume of 99 ml in buffer B (10 mM Tris acetate, pH 8.0, 20 mM Magnesium acetate, 1 mM DTT, 50.mM KCl). 1.5 ml portions of lysostaphin (0.8 mg/ml) in buffer B are introduced into 3 precooled centrifuge cups and each mixed with 33 ml of the cell suspension. The samples are incubated at 37° C., shaking occasionally, for 45 to 60 min, before 150 μl of a 0.5 M DTT solution are added. The lysed cells are centrifuged at 30 000×g and 4° C. for 30 min. The cell pellet is taken up in buffer B and then centrifuged again under the same conditions, and the collected supernatants are combined. The supernatants are centrifuged again under the same conditions, and 0.25 volume of buffer C (670 mM Tris acetate, pH 8.0, 20 mM Magnesium acetate, 7 mM Na3 phosphoenolpyruvate, 7 mM DTT, 5.5 mM ATP, 70 μM amino acids (complete from Promega), 75 μg of pyruvate kinase (Sigma, Germany)/ml are added to the upper ⅔ of the supernatant. The samples are incubated at 37° C. for 30 min. The supernatants are dialysed against 2 l of dialysis buffer (10 mM Tris acetate, pH 8.0, 14 mM Magnesium acetate, 1 mM DTT, 60 mM Potassium acetate) in a dialysis tube with a 3500 Da cut-off with one buffer change at 4° C. overnight. The dialysate is concentrated to a protein concentration of about 10 mg/ml by covering the dialysis tube with cold PEG 8000 powder (Sigma, Germany) at 4° C. The S30 extracts can be stored in aliquots at −70° C.
Determination of the IC50 in the S. aureus in vitro Transcription-Translation Assay Inhibition of protein biosynthesis of the compounds can be shown in an in vitro transcription-translation assay. The assay is based on the cell-free transcription and translation of firefly luciferase using the reporter plasmid pla as template and cell-free S30 extracts obtained from S. aureus. The activity of the resulting luciferase can be detected by luminescence measurement.
The amount of S30 extract or plasmid pla to be employed must be tested anew for each preparation in order to ensure an optimal concentration in the assay. 3 μl of the substance to be tested, dissolved in 5% DMSO, are introduced into an MTP. Then 10 μl of a suitably concentrated plasmid solution pla are added. […]

[6] = test system: S. aureus T17; experiment: MIC, alternative method: agar dilution test with 20% defibrinated horse blood; format: cell-based; conditions: Staphylococcus aureus
Description: (§4) Alternative Method for Determining the Minimum Inhibitory Concentration (MIC)
(§5) The minimum inhibitory concentration (MIC) is the minimum concentration of an antibiotic with which the growth of a test microbe is inhibited over 18-24 h. The inhibitor concentration can be determined by standard microbiological methods using modified medium in an agar dilution test (see, for example, the National Committee for Clinical Laboratory Standards. Methods for dilution antimicrobial susceptibility tests for bacteria that grow aerobically; approved standard-fifth edition. NCCLS document M7-A5 [ISBN 1-56238-394-9]. NCCLS, 940 West Valley Road, Suite 1400, Wayne, Pa. 19087-1898 USA, 2000). The bacterial microbes are cultivated on 1.5% agar plates containing 20% defibrinated horse blood. The test microbes, which are incubated on Columbia blood agar plates (Becton-Dickinson) overnight, are diluted in PBS, adjusted to a microbe count of about 5×10^5 microbes/ml and placed as drops (1-3 μl) on test plates. The test substances contain various dilutions of the test substances (1:2 dilution stages). The cultures are incubated at 37° C. in the presence of 5% CO2 for 18-24 hours.
(§6) The lowest concentration of each substance at which no visible bacterial growth occurs is defined as the MIC and is reported in μg/ml.

[7] = test system: S. aureus E33; experiment: as above; format: cell-based; conditions: Staphylococcus aureus
Description: as §4, §5, §6

[8] = test system: E. faecium L4001; experiment: as above; format: cell-based; conditions: Enterococcus faecium
Description: as §4, §5, §6

[9] = test system: S. aureus RN4220Bi^R; experiment: MIC of the isolated resistant colony; format: cell-based; conditions: colony selected as strain RN4220Bi^R
Description: The S. aureus strain RN4220Bi^R is isolated in vitro. […] Whereas about 1×10^7 cells grow on the antibiotic-free plate, about 100 colonies grow on the antibiotic-containing plate, corresponding to a resistance rate of 1×10^−5. Some of the colonies grown on the antibiotic-containing plate are tested for the biphenomycin B MIC. One colony with an MIC of >50 μM is selected for further use, and the strain is referred to as RN4220Bi^R.

[10] = Staphylococcus aureus, T17, read-out: MIC S. aureus T17
[11] = T17, read-out: MIC S. aureus T17
[12] = E33, read-out: MIC S. aureus E33
[13] = L4001, read-out: MIC E. faecium L4001
[14] = T17, Table B, agar dilution, 20% defibrinated horse blood, read-out: MIC S. aureus T17
[15] = E33, Table B, agar dilution, 20% defibrinated horse blood, read-out: MIC S. aureus E33
[16] = L4001, Table B, agar dilution, 20% defibrinated horse blood, read-out: MIC E. faecium L4001

Compound	MIC [2, 10] [µM]	MIC [3] [µM]	MIC [4] [µM]	IC50 ([5]; Table A) [nM]	MIC [6, 11] [µg/mL]	MIC [7, 12] [µg/mL]	MIC [8, 13] [µg/mL]	IC50 ([5]; Table B) [nM]	MIC [6, 14] [µg/mL]	MIC [7, 15] [µg/mL]	MIC [8, 16] [µg/mL]	further results
CN1C(=O)[C@H](C[C@@H](O)CN)NC(=O)[C@@H](N)Cc2cc(ccc2O)-c2ccc(O)c(c2)C[C@H]1C(=O)NC1CCNCC1 [Example 2, (8S,11S,14S)-14-Amino-11-[(2R)-3-amino-2-hydroxypropyl]-5,17-dihydroxy-9-methyl-10,13-dioxo-N-piperidin-4-yl-9,12-diazatricyclo[14.3.1.1^2,6]henicosa-1(20),2(21),3,5,16,18-hexaene-8-carboxamide trihydrochloride]	6.3	1.6	25	200								therapeutic effect ED100 [1]: 1.25 mg/kg
CN1C(=O)[C@H](CCCN)NC(=O)[C@@H](N)Cc2cc(ccc2O)-c2ccc(O)c(c2)C[C@H]1C(=O)NCCN [Example 3, (8S,11S,14S)-14-Amino-N-(2-aminoethyl)-11-(3-aminopropyl)-5,17-dihydroxy-9-methyl-10,13-dioxo-9,12-diazatricyclo[14.3.1.1^2,6]henicosa-1(20),2(21),3,5,16,18-hexaene-8-carboxamide trihydrochloride]	3.1	1.6	25	350	4	2	16	350				
NCCCNCCCNC(=O)[C@@H]1Cc2cc(ccc2O)-c2ccc(O)c(c2)C[C@H](N)C(=O)N[C@@H](CCCN)C(=O)N1 [Example 42, (8S,11S,14S)-14-amino-11-(3-aminopropyl)-N-{3-[(3-aminopropyl)amino]propyl}-5,17-dihydroxy-10,13-dioxo-9,12-diazatricyclo[14.3.1.1^2,6]henicosa-1(20),2(21),3,5,16,18-hexaene-8-carboxamide]								400	2 (≈ 3.51 µM)	1 (≈ 1.76 µM)	4 (≈ 7.02 µM)	
NCCC[C@@H]1NC(=O)[C@@H](N)Cc2cc(ccc2O)-c2ccc(O)c(c2)C[C@@H](C(=O)NCCN(CCN)CCN)NC1=O [Example 43, (8S,11S,14S)-14-amino-11-(3-aminopropyl)-N-{2-[bis(2-aminoethyl)amino]ethyl}-5,17-dihydroxy-10,13-dioxo-9,12-diazatricyclo[14.3.1.1^2,6]henicosa-1(20),2(21),3,5,16,18-hexaene-8-carboxamide]								150	2 (≈ 3.42 µM)	1 (≈ 1.71 µM)	16 (≈ 27.4 µM)	
NCCC[C@H](N)CNC(=O)[C@@H]1Cc2cc(ccc2O)-c2ccc(O)c(c2)C[C@H](N)C(=O)N[C@@H](CCCN)C(=O)N1 [Example 45, (8S,11S,14S)-14-amino-11-(3-aminopropyl)-N-[(2S)-2,5-diaminopentyl]-5,17-dihydroxy-10,13-dioxo-9,12-diazatricyclo[14.3.1.1 ^2,6]henicosa-1(20),2(21),3,5,16,18,-hexaene-8-carboxamide]					2 (≈ 3.6 µM)	0.5 (≈ 0.9 µM)	2 (≈ 3.6 µM)	100				
NC[C@H](O)C[C@@H]1NC(=O)[C@@H](N)Cc2cc(ccc2O)-c2ccc(O)c(c2)C[C@@H](C(=O)O)NC1=O [biphenomycin B, reference compound]												MIC [9]: > 50 µM; MIC ([2]; colony selected as strain T17, isolated from kidney of treated mice): > 50 µM

— patent publication US20050256037A1, “Antibacterial amide macrocyles” (Bayer HealthCare AG, priority 2003, published 2005)
